Like-named read-outs stand apart in the source and are kept apart here.
Legend:
Experiment in all cases: HotSpot kinase profiling
Assay type in all cases: biochemical
BRSK1 = molecular target: T1, BRSK1 (Homo sapiens, UniProt Q8TDC3)
T1 construct: purchased Reaction Biology Corp
T1 sequence (Q8TDC3 1-778): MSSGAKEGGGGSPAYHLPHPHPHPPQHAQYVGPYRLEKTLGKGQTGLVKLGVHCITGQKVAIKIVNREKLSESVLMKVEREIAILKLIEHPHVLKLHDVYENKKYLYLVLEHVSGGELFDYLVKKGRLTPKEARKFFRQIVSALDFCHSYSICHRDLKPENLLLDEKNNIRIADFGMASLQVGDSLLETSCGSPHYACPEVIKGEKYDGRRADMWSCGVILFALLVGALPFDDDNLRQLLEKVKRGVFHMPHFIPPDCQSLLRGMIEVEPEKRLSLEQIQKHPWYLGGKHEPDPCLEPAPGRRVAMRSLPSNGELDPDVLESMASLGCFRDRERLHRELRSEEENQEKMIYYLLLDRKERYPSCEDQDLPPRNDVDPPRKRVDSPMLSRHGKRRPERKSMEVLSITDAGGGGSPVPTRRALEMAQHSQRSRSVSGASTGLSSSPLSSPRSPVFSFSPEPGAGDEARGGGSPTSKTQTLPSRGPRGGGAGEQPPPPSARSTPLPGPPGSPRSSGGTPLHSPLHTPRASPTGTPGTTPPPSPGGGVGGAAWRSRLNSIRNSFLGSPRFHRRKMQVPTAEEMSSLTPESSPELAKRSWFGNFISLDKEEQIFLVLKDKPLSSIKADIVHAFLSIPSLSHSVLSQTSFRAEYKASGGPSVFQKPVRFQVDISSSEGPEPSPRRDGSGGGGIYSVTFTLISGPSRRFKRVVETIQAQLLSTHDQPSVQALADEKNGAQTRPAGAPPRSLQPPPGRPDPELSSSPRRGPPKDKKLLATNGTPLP
Method in brief: (§1)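 Percent inhibition, averaged when run more than once and referenced to a DMSO negative control, came from a radioactive filter-binding readout on P81 paper. Reactions of kinase with freshly made substrate and cofactors ran for 2 h at room temperature.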

DAPK1 = molecular target: T2, DAPK1 (Homo sapiens, UniProt P53355)
T2 construct: purchased Reaction Biology Corp
T2 sequence (P53355 whole entry): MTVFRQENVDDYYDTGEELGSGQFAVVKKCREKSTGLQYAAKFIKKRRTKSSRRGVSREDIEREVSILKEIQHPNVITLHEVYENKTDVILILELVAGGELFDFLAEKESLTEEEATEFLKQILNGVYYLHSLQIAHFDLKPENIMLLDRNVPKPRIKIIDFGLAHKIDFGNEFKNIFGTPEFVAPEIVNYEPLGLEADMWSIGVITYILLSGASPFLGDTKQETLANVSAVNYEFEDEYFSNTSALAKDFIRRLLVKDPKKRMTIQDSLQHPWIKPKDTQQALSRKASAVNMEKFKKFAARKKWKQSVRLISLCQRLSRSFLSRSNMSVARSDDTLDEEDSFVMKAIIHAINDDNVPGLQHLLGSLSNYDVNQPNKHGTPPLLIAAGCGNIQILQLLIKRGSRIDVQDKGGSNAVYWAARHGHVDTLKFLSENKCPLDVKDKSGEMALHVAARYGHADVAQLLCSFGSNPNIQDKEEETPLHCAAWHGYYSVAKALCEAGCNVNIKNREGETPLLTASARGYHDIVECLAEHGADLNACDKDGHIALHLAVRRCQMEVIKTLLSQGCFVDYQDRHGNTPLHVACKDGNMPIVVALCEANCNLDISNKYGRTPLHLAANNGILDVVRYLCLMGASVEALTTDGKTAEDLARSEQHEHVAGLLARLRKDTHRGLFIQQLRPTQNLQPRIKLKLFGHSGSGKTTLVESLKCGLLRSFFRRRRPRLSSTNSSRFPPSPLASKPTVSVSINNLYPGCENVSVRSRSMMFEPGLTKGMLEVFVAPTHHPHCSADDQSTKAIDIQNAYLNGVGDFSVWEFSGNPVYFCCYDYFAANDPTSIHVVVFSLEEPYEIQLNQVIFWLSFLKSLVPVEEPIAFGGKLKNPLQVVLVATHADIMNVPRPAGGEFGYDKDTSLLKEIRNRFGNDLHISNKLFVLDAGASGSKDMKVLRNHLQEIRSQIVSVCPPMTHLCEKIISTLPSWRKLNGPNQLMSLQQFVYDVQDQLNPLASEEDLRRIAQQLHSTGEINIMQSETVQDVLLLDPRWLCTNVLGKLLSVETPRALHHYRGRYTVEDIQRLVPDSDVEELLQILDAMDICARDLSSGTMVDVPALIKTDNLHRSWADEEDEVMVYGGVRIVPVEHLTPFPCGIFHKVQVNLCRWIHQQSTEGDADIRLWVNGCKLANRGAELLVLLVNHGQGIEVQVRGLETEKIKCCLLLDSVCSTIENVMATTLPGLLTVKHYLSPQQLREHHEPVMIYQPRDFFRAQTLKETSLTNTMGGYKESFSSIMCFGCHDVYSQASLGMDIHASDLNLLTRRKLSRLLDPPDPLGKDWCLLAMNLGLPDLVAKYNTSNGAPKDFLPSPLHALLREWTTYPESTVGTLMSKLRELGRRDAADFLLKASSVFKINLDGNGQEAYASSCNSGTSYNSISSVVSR
Method in brief: as §1

EPHA7 = molecular target: T3, EPHA7 (Homo sapiens, UniProt Q15375)
T3 construct: purchased Reaction Biology Corp
Method in brief: as §1

ERK7/MAPK15 = molecular target: T4, ERK7/MAPK15 (Homo sapiens, UniProt Q8TD08)
T4 construct: purchased Reaction Biology Corp
T4 sequence (Q8TD08 1-544): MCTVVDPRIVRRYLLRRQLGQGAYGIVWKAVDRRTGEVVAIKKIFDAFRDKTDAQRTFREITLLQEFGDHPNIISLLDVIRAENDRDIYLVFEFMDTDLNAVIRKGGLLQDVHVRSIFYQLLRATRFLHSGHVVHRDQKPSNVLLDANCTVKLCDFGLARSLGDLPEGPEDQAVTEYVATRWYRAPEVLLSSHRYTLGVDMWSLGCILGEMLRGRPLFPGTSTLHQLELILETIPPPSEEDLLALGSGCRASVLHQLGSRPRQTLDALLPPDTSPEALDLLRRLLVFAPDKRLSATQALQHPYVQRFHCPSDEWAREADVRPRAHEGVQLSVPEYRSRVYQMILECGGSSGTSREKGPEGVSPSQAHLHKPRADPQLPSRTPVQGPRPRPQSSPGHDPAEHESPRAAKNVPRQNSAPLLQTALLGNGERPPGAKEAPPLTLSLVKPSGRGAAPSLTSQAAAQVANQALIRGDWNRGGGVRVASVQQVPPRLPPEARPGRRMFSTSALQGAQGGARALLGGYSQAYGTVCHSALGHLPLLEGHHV
Method in brief: as §1

FLT1/VEGFR1 = molecular target: T5, FLT1/VEGFR1 (Homo sapiens, UniProt P17948)
T5 construct: purchased Reaction Biology Corp
T5 sequence (P17948 27-1338): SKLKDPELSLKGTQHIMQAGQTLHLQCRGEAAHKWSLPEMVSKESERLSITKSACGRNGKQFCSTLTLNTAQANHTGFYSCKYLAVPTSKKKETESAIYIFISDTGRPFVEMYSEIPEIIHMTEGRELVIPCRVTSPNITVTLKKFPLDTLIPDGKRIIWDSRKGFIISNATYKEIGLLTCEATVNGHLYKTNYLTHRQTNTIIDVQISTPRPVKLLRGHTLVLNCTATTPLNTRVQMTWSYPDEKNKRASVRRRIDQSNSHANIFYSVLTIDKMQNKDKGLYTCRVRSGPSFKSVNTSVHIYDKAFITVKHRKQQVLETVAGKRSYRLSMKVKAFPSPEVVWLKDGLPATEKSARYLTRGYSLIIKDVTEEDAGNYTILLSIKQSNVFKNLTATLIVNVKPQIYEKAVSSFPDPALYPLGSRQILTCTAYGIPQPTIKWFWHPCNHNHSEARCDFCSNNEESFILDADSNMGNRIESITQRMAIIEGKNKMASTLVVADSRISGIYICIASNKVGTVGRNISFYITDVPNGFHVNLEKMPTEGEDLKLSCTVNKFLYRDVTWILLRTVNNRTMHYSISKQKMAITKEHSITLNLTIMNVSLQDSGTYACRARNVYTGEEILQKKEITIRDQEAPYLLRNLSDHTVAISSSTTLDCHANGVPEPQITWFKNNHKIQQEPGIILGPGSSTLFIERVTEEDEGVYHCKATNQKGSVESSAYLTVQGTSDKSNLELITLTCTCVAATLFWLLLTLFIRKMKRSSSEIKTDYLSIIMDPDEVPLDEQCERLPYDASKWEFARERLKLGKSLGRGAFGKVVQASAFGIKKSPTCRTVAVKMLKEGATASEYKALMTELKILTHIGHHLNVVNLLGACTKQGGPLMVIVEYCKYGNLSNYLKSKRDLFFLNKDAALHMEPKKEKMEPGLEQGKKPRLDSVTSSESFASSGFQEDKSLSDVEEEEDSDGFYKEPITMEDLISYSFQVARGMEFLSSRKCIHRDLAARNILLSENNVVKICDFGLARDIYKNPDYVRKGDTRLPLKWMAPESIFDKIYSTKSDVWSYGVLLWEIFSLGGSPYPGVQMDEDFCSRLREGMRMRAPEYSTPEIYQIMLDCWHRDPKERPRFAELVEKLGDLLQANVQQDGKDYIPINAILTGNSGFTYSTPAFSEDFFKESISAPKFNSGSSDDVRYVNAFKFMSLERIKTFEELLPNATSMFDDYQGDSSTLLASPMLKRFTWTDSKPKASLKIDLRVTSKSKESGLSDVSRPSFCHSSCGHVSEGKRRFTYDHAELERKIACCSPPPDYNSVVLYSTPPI
Method in brief: as §1

FLT4/VEGFR3 = molecular target: T6, FLT4/VEGFR3 (Homo sapiens, UniProt P35916)
T6 construct: purchased Reaction Biology Corp
Method in brief: as §1

FRK/PTK5 = molecular target: T7, FRK/PTK5 (Homo sapiens, UniProt P42685)
T7 construct: purchased Reaction Biology Corp
T7 sequence (P42685 whole entry): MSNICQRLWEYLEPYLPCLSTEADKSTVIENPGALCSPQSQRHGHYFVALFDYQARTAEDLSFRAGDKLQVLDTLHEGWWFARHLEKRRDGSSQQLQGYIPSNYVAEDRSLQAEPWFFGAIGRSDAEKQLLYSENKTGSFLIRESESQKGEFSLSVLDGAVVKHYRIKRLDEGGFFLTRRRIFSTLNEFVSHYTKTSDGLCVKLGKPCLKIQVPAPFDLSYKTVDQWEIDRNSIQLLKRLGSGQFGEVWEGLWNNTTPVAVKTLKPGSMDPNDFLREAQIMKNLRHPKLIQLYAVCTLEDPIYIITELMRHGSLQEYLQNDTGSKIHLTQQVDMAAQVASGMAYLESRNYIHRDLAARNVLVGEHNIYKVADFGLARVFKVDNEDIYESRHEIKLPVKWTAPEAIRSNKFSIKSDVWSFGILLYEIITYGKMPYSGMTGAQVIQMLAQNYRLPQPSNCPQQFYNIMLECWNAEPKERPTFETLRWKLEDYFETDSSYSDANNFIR
Method in brief: as §1

LIMK1 = molecular target: T8, LIMK1 (Homo sapiens, UniProt P53667)
T8 construct: purchased Reaction Biology Corp
Method in brief: as §1

PAK6 = molecular target: T9, PAK6 (Homo sapiens, UniProt Q9NQU5)
T9 construct: purchased Reaction Biology Corp
Method in brief: as §1

RSK3 = molecular target: T10, RSK3 (Homo sapiens, UniProt Q15349)
T10 construct: purchased Reaction Biology Corp
Method in brief: as §1

STK25/YSK1 = molecular target: T11, STK25/YSK1 (Homo sapiens, UniProt O00506)
T11 construct: purchased Reaction Biology Corp
T11 sequence (O00506 whole entry): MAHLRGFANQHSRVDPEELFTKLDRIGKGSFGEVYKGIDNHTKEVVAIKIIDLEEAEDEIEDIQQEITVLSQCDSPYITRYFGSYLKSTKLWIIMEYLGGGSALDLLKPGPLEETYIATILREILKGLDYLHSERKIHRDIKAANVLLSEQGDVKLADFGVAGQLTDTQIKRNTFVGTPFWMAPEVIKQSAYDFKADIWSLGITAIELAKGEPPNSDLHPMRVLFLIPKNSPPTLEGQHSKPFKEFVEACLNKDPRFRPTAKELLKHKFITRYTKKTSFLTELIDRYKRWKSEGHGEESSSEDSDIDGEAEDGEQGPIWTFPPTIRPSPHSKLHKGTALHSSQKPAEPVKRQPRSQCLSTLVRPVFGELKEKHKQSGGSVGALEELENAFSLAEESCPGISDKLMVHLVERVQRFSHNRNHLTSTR
Method in brief: as §1

TNIK = molecular target: T12, TNIK (Homo sapiens, UniProt Q9UKE5)
T12 construct: purchased Reaction Biology Corp
T12 sequence (Q9UKE5 whole entry): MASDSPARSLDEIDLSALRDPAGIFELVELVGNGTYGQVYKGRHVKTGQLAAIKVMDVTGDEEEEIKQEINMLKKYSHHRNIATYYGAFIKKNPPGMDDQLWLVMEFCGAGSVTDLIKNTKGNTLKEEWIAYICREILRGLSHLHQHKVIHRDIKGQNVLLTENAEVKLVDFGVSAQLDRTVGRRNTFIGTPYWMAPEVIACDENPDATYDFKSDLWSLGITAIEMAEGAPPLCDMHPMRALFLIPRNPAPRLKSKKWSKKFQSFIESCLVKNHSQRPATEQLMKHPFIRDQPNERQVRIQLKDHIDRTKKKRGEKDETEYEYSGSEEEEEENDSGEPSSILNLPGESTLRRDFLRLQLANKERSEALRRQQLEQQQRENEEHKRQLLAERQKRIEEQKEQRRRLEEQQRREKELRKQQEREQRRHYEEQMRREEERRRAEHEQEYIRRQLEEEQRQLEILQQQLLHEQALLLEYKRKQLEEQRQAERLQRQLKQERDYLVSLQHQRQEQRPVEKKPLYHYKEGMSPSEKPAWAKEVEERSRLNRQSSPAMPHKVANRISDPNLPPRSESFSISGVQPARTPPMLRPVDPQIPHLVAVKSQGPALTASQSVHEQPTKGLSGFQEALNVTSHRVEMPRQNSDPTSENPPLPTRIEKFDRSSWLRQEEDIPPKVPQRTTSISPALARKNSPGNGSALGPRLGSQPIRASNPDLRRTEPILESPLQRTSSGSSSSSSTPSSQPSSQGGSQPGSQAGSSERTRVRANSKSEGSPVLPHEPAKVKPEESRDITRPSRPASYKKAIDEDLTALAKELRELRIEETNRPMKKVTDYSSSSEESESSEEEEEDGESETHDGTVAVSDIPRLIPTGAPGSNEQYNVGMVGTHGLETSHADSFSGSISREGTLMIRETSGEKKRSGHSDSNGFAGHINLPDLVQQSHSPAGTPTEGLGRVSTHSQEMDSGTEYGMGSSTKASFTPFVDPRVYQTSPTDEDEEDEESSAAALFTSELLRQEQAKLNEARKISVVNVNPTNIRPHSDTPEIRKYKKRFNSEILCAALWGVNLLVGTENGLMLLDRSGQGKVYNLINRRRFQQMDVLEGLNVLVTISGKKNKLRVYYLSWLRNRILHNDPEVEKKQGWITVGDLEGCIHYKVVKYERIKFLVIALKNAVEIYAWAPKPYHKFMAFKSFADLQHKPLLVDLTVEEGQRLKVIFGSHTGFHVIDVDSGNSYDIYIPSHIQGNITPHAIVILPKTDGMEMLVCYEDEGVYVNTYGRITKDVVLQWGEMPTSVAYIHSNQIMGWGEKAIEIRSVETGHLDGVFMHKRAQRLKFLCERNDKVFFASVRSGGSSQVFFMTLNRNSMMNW
Method in brief: as §1

[1] = read-out: % Enzyme Activity (relative to DMSO controls) Run 1
[2] = read-out: % Enzyme Activity (relative to DMSO controls) Run 2

SMILES: C=CC(=O)Nc1cccc(Nc2nc(Nc3ccc(OCCOC)c(F)c3)ncc2F)c1 [Compound 2]
- inhibition at 3 µM (BRSK1): 11.8%
- remaining activity at 3 µM (BRSK1; [1]): 87.1%
- remaining activity at 3 µM (BRSK1; [2]): 89.4%
- inhibition at 3 µM (DAPK1): 1.86%
- remaining activity at 3 µM (DAPK1; [1]): 103%
- remaining activity at 3 µM (DAPK1; [2]): 93.5%
- inhibition at 3 µM (EPHA7): 37.9%
- remaining activity at 3 µM (EPHA7; [1]): 60%
- remaining activity at 3 µM (EPHA7; [2]): 64.1%
- inhibition at 3 µM (ERK7/MAPK15): 35.1%
- remaining activity at 3 µM (ERK7/MAPK15; [1]): 63.8%
- remaining activity at 3 µM (ERK7/MAPK15; [2]): 66%
- inhibition at 3 µM (FLT1/VEGFR1): 18.6%
- remaining activity at 3 µM (FLT1/VEGFR1; [1]): 83.6%
- remaining activity at 3 µM (FLT1/VEGFR1; [2]): 79.2%
- inhibition at 3 µM (FLT4/VEGFR3): 56%
- remaining activity at 3 µM (FLT4/VEGFR3; [1]): 43.8%
- remaining activity at 3 µM (FLT4/VEGFR3; [2]): 44.2%
- inhibition at 3 µM (FRK/PTK5): 0.75%
- remaining activity at 3 µM (FRK/PTK5; [1]): 101%
- remaining activity at 3 µM (FRK/PTK5; [2]): 98%
- inhibition at 3 µM (LIMK1): 38.8%
- remaining activity at 3 µM (LIMK1; [1]): 61%
- remaining activity at 3 µM (LIMK1; [2]): 61.4%
- inhibition at 3 µM (PAK6): 18%
- remaining activity at 3 µM (PAK6; [1]): 79.3%
- remaining activity at 3 µM (PAK6; [2]): 84.8%
- inhibition at 3 µM (RSK3): 14.5%
- remaining activity at 3 µM (RSK3; [1]): 85.8%
- remaining activity at 3 µM (RSK3; [2]): 85.2%
- inhibition at 3 µM (STK25/YSK1): 5.72%
- remaining activity at 3 µM (STK25/YSK1; [1]): 94.5%
- remaining activity at 3 µM (STK25/YSK1; [2]): 94.1%
- inhibition at 3 µM (TNIK): 32.7%
- remaining activity at 3 µM (TNIK; [1]): 66.8%
- remaining activity at 3 µM (TNIK; [2]): 67.8%

Reference: patent US9492471B2, “Methods of treating a disease or disorder associated with Bruton'S Tyrosine Kinase” (Celgene Avilomics Research, Inc., priority 2013, dated 2016)
